# Where a name gives a salt, the structure may show the parent alone. Read-outs that look alike come from different tables or passages of the source.
# Experiments:
# BRD4 = tested on: BRD4; set-up: method as in Aldeghi et al. (18); conditions: experimental binding free energy; ligand named by PDB code of its complex; ref Aldeghi et al. (18); cited from earlier work
# human factor Xa = conditions: experimental binding free energy; ligand named by PDB code of its complex; cited from earlier work
# SARS-CoV-2 M^pro [1] = target: T1, SARS-CoV-2 M^pro (Severe acute respiratory syndrome coronavirus 2, UniProt P0DTD1); assay: biochemical
# SARS-CoV-2 M^pro [2] = target: T1, SARS-CoV-2 M^pro
# SARS-CoV-2 M^pro [3] = target: T1, SARS-CoV-2 M^pro; conditions: for UEMM-GBSA: unsigned error |ΔGMM-GBSA − ΔGexp|; for UEMM-PBSA: unsigned error |ΔGMM-PBSA − ΔGexp|
# HIV-1 protease = conditions: experimental binding free energy; ligand named by PDB code of its complex; cited from earlier work
# [4] = tested on: vesicular stomatitis virus (VSV); assay type: cell-based
# [5] = tested on: human ether-a-go-go−related gene (hERG) encoded potassium channel Kv11.1; conditions: cited from earlier work
# SARS-CoV-2 = conditions: cited from earlier work; for activity in vitro against SARS-CoV-2: molecular targets not reported
# [6] = tested on: microsomal prostaglandin E2 synthase 1 (mPGES-1); conditions: cited from earlier work
# norovirus = conditions: cited from earlier work
# SARS-CoV = conditions: at 1.0 μM; cited from earlier work
# [7] = calculated from corresponding Ki values
# [8] = converted from IC50 based on the assumption of the competitive inhibition without covalent binding, read-out: Ki
# [9] = substrate concentration 20 µM, 500 nM enzyme, ∼50 values estimated from single-concentration assay, read-out: IC50
smiles,measurement,setting,value
COc1cc(OC)c2c(=O)[nH]c(-c3cc(C)c(O)c(C)c3)nc2c1 [4MR3],∆Gexp,BRD4,-9.0 kcal/mol
CN1CCN=C1c1cccc(Oc2nc(Oc3cc(C(=N)N)ccc3O)c(F)c(N(C)CC(=O)O)c2F)c1 [1FJS],∆Gexp,human factor Xa,-13.6 kcal/mol
CC(=O)NS(=O)(=O)c1ccc(N)cc1 [Sulfacetamide],IC50,SARS-CoV-2 M^pro [1],~50 µM
same,Ki,SARS-CoV-2 M^pro [1],~3270 nM
same,ΔGexp,SARS-CoV-2 M^pro [1]; [7],-7.5 kcal/mol
same,UEFEP-ABFE,SARS-CoV-2 M^pro [2],0.5 kcal/mol
same,UEMM-GBSA,SARS-CoV-2 M^pro [3],6.4 kcal/mol
same,UEMM-PBSA,SARS-CoV-2 M^pro [3],7.3 kcal/mol
CC(C)[C@H](N)C(=O)OCCOCn1cnc2c(=O)[nH]c(N)nc21 [Valacyclovir hydrochloride],ΔGexp,SARS-CoV-2 M^pro [1]; [7],-8.1 kcal/mol
same,Ki,SARS-CoV-2 M^pro [1]; [8],1090 ± 60 nM
same,IC50,SARS-CoV-2 M^pro [1]; [9],16.7 ± 0.9 µM
same,UEFEP-ABFE,SARS-CoV-2 M^pro [2],1.9 kcal/mol
same,UEMM-GBSA,SARS-CoV-2 M^pro [3],10.2 kcal/mol
same,UEMM-PBSA,SARS-CoV-2 M^pro [3],12.7 kcal/mol
COc1ccc2[nH]c([S+]([O-])Cc3ncc(C)c(OC)c3C)nc2c1 (stereo not shown) [Omeprazole],IC50,SARS-CoV-2 M^pro [1],21 ± 1 µM
same,Ki,SARS-CoV-2 M^pro [1],1370 ± 60 nM
same,ΔGexp,SARS-CoV-2 M^pro [1]; [7],-8.0 kcal/mol
same,UEFEP-ABFE,SARS-CoV-2 M^pro [2],1.6 kcal/mol
same,UEMM-GBSA,SARS-CoV-2 M^pro [3],16.4 kcal/mol
same,UEMM-PBSA,SARS-CoV-2 M^pro [3],14.3 kcal/mol
CN1Cc2cc(Br)ccc2NC1=O [4HBV],∆Gexp,BRD4,-6.3 kcal/mol
CN(C)[C@@H]1C(O)=C(C(N)=O)C(=O)[C@@]2(O)C(O)=C3C(=O)c4c(O)cccc4[C@@](C)(O)[C@H]3[C@H](O)[C@@H]12 [Oxytetracycline],ΔGexp,SARS-CoV-2 M^pro [1]; [7],-8.2 kcal/mol
same,Ki,SARS-CoV-2 M^pro [1]; [8],990 ± 60 nM
same,IC50,SARS-CoV-2 M^pro [1]; [9],15.2 ± 0.9 µM
same,UEFEP-ABFE,SARS-CoV-2 M^pro [2],0.6 kcal/mol
same,UEMM-GBSA,SARS-CoV-2 M^pro [3],6.4 kcal/mol
same,UEMM-PBSA,SARS-CoV-2 M^pro [3],1.8 kcal/mol
"CCOc1nc2cccc(C(=O)OC(C)OC(=O)OC3CCCCC3)c2n1Cc1ccc(-c2ccccc2-c2nnn[nH]2)cc1 (stereo not shown) [Candesartan cilexetil, candesartan cilexetil]",ΔGexp,SARS-CoV-2 M^pro [1]; [7],-9.2 kcal/mol
same,Ki,SARS-CoV-2 M^pro [1]; [8],180 ± 20 nM
same,IC50,SARS-CoV-2 M^pro [1]; [9],2.8 ± 0.3 µM
same,UEFEP-ABFE,SARS-CoV-2 M^pro [2],0.6 kcal/mol
same,UEMM-GBSA,SARS-CoV-2 M^pro [3],29.1 kcal/mol
same,UEMM-PBSA,SARS-CoV-2 M^pro [3],26.9 kcal/mol
Cc1sc2c(c1C)C(c1ccc(Cl)cc1)=N[C@@H](CC(=O)OC(C)(C)C)c1nnc(C)n1-2 [3MXF],∆Gexp,BRD4,-9.6 kcal/mol
C=C(C)CNC(=O)C1N(C(=O)C(O)C(Cc2ccccc2)NC(=O)COc2c(C)cc(N)cc2C)CSC1(C)C (stereo not shown) [3A2O],∆Gexp,HIV-1 protease,-12.4 kcal/mol
O=C(Cn1cnc(NC(=O)c2ccc(Cl)s2)n1)Nc1ccc(-n2ccccc2=O)cc1F [2VVV],∆Gexp,human factor Xa,-11.2 kcal/mol
CC(C)[C@H](N)C(=O)OCC(CO)OCn1cnc2c(=O)nc(N)[nH]c21 (stereo partly shown) [Valganciclovir Hydrochloride],Ki,SARS-CoV-2 M^pro [1]; [8],1090 ± 60 nM
CNC(=O)[C@@H](NC(=O)[C@H](OCc1ccccc1)[C@H](O)[C@@H](O)[C@@H](OCc1ccccc1)C(=O)N[C@H]1c2ccccc2C[C@H]1O)C(C)C [1EBZ],∆Gexp,HIV-1 protease,-12.8 kcal/mol
"CCN(CCO)CCCC(C)Nc1ccnc2cc(Cl)ccc12 (stereo not shown) [Hydroxychloroquine, hydroxychloroquine]",inhibition of VSV,[4],no significant inhibition
same,IC50,"[5]; read-out: IC50, hERG Kv11.1 block",10.7 µM
same,UEFEP-ABFE,SARS-CoV-2 M^pro [2],1.1 kcal/mol
same,activity in vitro against SARS-CoV-2,SARS-CoV-2,active in vitro
"CCOc1nc2cccc(C(=O)O)c2n1Cc1ccc(-c2ccccc2-c2nnn[nH]2)cc1 [Candesartan, candesartan]",Ki,SARS-CoV-2 M^pro [1],620 nM
Cc1nnc2n1-c1ccc(Cl)cc1C(c1ccccc1)=NC2 [3U5J],∆Gexp,BRD4,-7.4 kcal/mol
COc1ccc(-n2nc(C(N)=O)c3c2C(=O)N(c2ccc(N4CCCCC4=O)cc2)CC3)cc1 [2P16],∆Gexp,human factor Xa,-13.8 kcal/mol
O=C(N[C@H]1c2ccccc2C[C@H]1O)[C@H](OCc1ccccc1)[C@H](O)[C@@H](O)[C@@H](OCc1ccccc1)C(=O)N[C@H]1c2ccccc2C[C@H]1O [1EBY],∆Gexp,HIV-1 protease,-13.2 kcal/mol
"CCN(CC)C(=S)SSC(=S)N(CC)CC [Disulfiram, disulfiram]",ΔGexp,SARS-CoV-2 M^pro [1]; [7],-8.8 kcal/mol
same,UEFEP-ABFE,SARS-CoV-2 M^pro [2],2.2 kcal/mol
same,UEFEP-ABFE,SARS-CoV-2 M^pro [2]; listed as disulfiram,about 2.2 kcal/mol
"OCCN(CCO)c1nc(N2CCCCC2)c2nc(N(CCO)CCO)nc(N3CCCCC3)c2n1 [DIP, dipyridamole]",inhibition of mPGES-1,[6],weak inhibitor
same,EC50,"SARS-CoV-2; raw antiviral activity data reported separately, read-out: EC50, suppression of SARS-CoV-2 replication",100 nM
O=C(NCc1ccccc1)[C@H](OCc1ccccc1)[C@H](O)[C@@H](O)[C@@H](OCc1ccccc1)C(=O)N[C@H]1c2ccccc2C[C@H]1O [1D4H],∆Gexp,HIV-1 protease,-13.6 kcal/mol
Cc1noc(C)c1-c1cc(O)cc(C(O)c2ccccc2)c1 (stereo not shown) [4J0R],∆Gexp,BRD4,-8.8 kcal/mol
CC(C)CN(CC(O)C(Cc1ccccc1)NC(=O)OC1COC2OCC(F)(F)C12)S(=O)(=O)c1ccc(N)cc1 (stereo not shown) [4U8W],∆Gexp,HIV-1 protease,-15.3 kcal/mol
Cc1nnc2n1-c1ccc(Cl)cc1C(c1ccccc1)=NN2C [3U5L],∆Gexp,BRD4,-8.2 kcal/mol
CC(=O)OCC(=O)NCCCOc1cccc(CN2CCCCC2)c1 [Roxatidine acetate hydrochloride],ΔGexp,SARS-CoV-2 M^pro [1]; [7],-8.0 kcal/mol
same,Ki,SARS-CoV-2 M^pro [1]; [8],1330 ± 20 nM
same,IC50,SARS-CoV-2 M^pro [1]; [9],20.3 ± 0.4 µM
same,UEFEP-ABFE,SARS-CoV-2 M^pro [2],0.8 kcal/mol
same,UEMM-GBSA,SARS-CoV-2 M^pro [3],22.5 kcal/mol
same,UEMM-PBSA,SARS-CoV-2 M^pro [3],21.2 kcal/mol
Cc1coc(CN(C)C(=O)c2cccc(C(=O)N[C@@H](Cc3ccccc3)[C@H](O)CN(CC(C)C)S(=O)(=O)c3ccc(CO)cc3)c2)n1 [5UPZ],∆Gexp,HIV-1 protease,-12.5 kcal/mol
COc1cc(OC)c2c(=O)[nH]c(-c3cc(C)c(OCCO)c(C)c3)nc2c1 [4MR4],∆Gexp,BRD4,-7.8 kcal/mol
CC(=O)N[C@@H](C)C(=O)N[C@@H](Cc1ccccc1)[C@H](O)CN(Cc1cccs1)S(=O)(=O)c1cc(F)c(F)cc1F [2QHY],∆Gexp,HIV-1 protease,-10.2 kcal/mol
CN/C(=N/CCSCc1nc[nH]c1C)NC#N [Cimetidine],IC50,SARS-CoV-2 M^pro [1],~50 µM
same,Ki,SARS-CoV-2 M^pro [1],~3270 nM
same,ΔGexp,SARS-CoV-2 M^pro [1],-7.5 kcal/mol
same,UEFEP-ABFE,SARS-CoV-2 M^pro [2],1.4 kcal/mol
same,UEMM-GBSA,SARS-CoV-2 M^pro [3],20.3 kcal/mol
same,UEMM-PBSA,SARS-CoV-2 M^pro [3],18.7 kcal/mol
O=S1(=O)N(Cc2ccccc2)[C@H](COc2ccccc2)[C@H](O)[C@@H](O)[C@@H](COc2ccccc2)N1Cc1ccccc1 [1AJV],∆Gexp,HIV-1 protease,-10.5 kcal/mol
O=C(N[C@H]1c2ccccc2C[C@H]1O)[C@@H](C[C@@H](O)[C@@H](OCc1ccccc1)C(=O)N[C@H]1c2ccccc2C[C@H]1O)OCc1ccccc1 [1D4I],∆Gexp,HIV-1 protease,-12.1 kcal/mol
CC(C(=O)N1CCOCC1)N1CCC(NS(=O)(=O)c2cc3ccc(Cl)cc3s2)C1=O (stereo not shown) [2J34],∆Gexp,human factor Xa,-10.7 kcal/mol
CCOc1cc(-c2c(C)noc2C)cc(C(C)O)c1 (stereo not shown) [3SVG],∆Gexp,BRD4,-7.3 kcal/mol
CC(C)Nc1nc2cc(Cl)c(Cl)cc2n1[C@H]1O[C@@H](CO)[C@H](O)[C@@H]1O [Maribavir],UEFEP-ABFE,SARS-CoV-2 M^pro [2]; unsigned error |ΔGFEP-ABFE − ΔGexp|,2.2 kcal/mol
same,UEFEP-ABFE,"SARS-CoV-2 M^pro [2]; unsigned error |ΔGFEP-ABFE − ΔGexp|, listed as maribavir",about 2.2 kcal/mol
same,UEMM-GBSA,SARS-CoV-2 M^pro [3],25.7 kcal/mol
same,UEMM-PBSA,SARS-CoV-2 M^pro [3],19.5 kcal/mol
CC(C)(C)NC(=O)[C@@H]1CN(Cc2cccnc2)CCN1C[C@@H](O)C[C@@H](Cc1ccccc1)C(=O)N[C@H]1c2ccccc2C[C@H]1O [Indinavir],activity in vitro against SARS-CoV-2,SARS-CoV-2,active in vitro
"CCN(CC)CCCC(C)Nc1ccnc2cc(Cl)ccc12 (stereo not shown) [Chloroquine, chloroquine]",inhibition of VSV,[4],no significant inhibition
same,sensitivity of norovirus to treatment,norovirus,hypersensitive
same,SARS-CoV replication reduced to,SARS-CoV,53%
same,IC50,[5],2.5 µM
same,UEFEP-ABFE,SARS-CoV-2 M^pro [2],1.5 kcal/mol
same,activity in vitro against SARS-CoV-2,SARS-CoV-2,active in vitro
same,UEMM-GBSA,SARS-CoV-2 M^pro [3],24.7 kcal/mol
same,UEMM-PBSA,SARS-CoV-2 M^pro [3],16.1 kcal/mol
COc1cc(Cl)cc(C(=O)Nc2ccc(Cl)cn2)c1NC(=O)c1scc(CN(C)C2=NCCO2)c1Cl [1MQ6],∆Gexp,human factor Xa,-15.2 kcal/mol

# From publication PMC7959488, “Identify potent SARS-CoV-2 main protease inhibitors via accelerated free energy perturbation-based virtual screening of existing drugs” (Proceedings of the National Academy of Sciences of the …, 2020)
